Laboratory results published in PMC4526366 (PLoS ONE, 2015).
Entries after “also recorded” stand apart in the source; their conditions may differ. Like-named read-outs stand apart in the source and are kept apart here. Where a SMILES comes first, the peptide text is derived from it. Where no end group is shown, it is not given here.

Key:
thrombin [1] = target: T1, thrombin (Homo sapiens, UniProt P00734); settings: 2 h, 37°C, TBS pH 7.4, MALDI MS; for cleavage by thrombin (peptide remaining / digestion): 25 μM peptide, 1 μM thrombin (25:1)
Experimental: Reactions were stopped by freezing at –20°C until analysis. Samples (2 μl) were desalted in C-8 micro-columns (Ziptip-Milipore), washing 3 times with 0.1% TFA and eluting with 60% acetonitrile in water. Washes were diluted with 4 μl 50% acetonitrile and spotted (0.5–1 μl) on MALDI plates followed by addition of matrix solution. After drying, they were injected into the MS instrument and analyzed in reflectron (peptide plus thrombin) or linear (peptide alone) mode.

α-thrombin [2] = target: T2, α-thrombin (Homo sapiens, UniProt P00734); experiment: Inhibition of thrombin-mediated hydrolysis of S2238; type: biochemical
T2 construct: purchased Sigma; Haematologic Technologies; or prepared in house from prothrombin (Enzyme Research Laboratories) with Oxyuranus scutellatus venom
Experimental: […] Reactions were started by addition of thrombin (0.5 nM) and absorbance was monitored for 10 minutes at 405 nm in a microplate reader. The data were fit to competitive or non-competitive models of inhibition using GraphPad Prism 5. In both cases, nonlinear regression was used to fit to the hyperbolic equation: v=Vmaxapp [S]/(Kmapp+[S]) In the case of competitive inhibition Vmaxapp = Vmax and in the case of noncompetitive inhibition Kmapp = Km.
In the case of competitive inhibition the inhibition constant (Ki) was obtained from fitting of: Kmapp = Km(1+[I]/Ki) .
For noncompetitive inhibition Ki was determined by fitting of: Vmaxapp = Vmax/(1+[I]/Ki)
The experiments were repeated three times.

thrombin (α-thrombin) [3] = experiment: thrombin at 1 μM in 1X TBS (10 X dilution of 10 X TBS pH 7.4); settings: 37°C, up to 2 hours
thrombin (α-thrombin) [4] = target: T3, thrombin (α-thrombin) (Homo sapiens, UniProt P00734); experiment: Screening for inhibition of serine proteases (fluorogenic substrate hydrolysis); type: biochemical; settings: 1 μM peptide, pre-incubated 30°C 10 min, mean of three independent experiments in triplicate
T3 construct: purchased Sigma; Haematologic Technologies; or prepared in house from prothrombin (Enzyme Research Laboratories) with Oxyuranus scutellatus venom
Experimental: Linear fits of fluorescence increases as a function of time were verified with the Magellan—Data Analysis Software (Tecan group Ltd), and the slope in arbitrary fluorescence units per second (r^2 > 0.95) was used to calculate hydrolysis rate. Each experiment was performed in triplicate and the mean and standard error of three independent experiments were calculated. The substrate hydrolysis rate in the absence of the peptide was considered as 100% and compared with the remaining enzymatic activity in the presence of the peptide.

BALB/c mice = settings: 2.5 mg/kg intravenous, tail transection after 15 min, hemoglobin by absorbance at 540
Experimental: Briefly, BALB/c mice were anesthetized (xylazine and ketamine) and the common carotid artery was isolated for measuring blood flow continuously using a 0.5-V Doppler flow probe coupled to a TS420 flow meter (Thransonic Systems, Ithaca, NY) [21]. Before induction of thrombosis the tail vein was injected with 50 μl of hyalomin-1 (1 and 2.5 mg/kg) or vehicle (PBS). Thrombi were formed by placing a piece of filter paper (1 x 2 mm) saturated with 7.5% FeCl3 on the adventitial surface or the artery for 3 minutes. After washing with normal saline, blood flow was continuously monitored for 60 minutes or until the blood flow dropped to zero for at least 10 seconds. Tail bleeding was performed on anesthetized mice injected intravenously with peptide (2.5 mg/kg) or vehicle alone (PBS) in 100 μl. After 15 minutes, the distal 2 mm segment was removed and the tail was immersed in 40 ml distilled 37°C warmed water. Absorbance at 540 was measured to estimate hemoglobin content.

thrombin [5] = target: T1, thrombin; experiment: biochemical
Experimental: Inhibition of thrombin-mediated activation of FXI in the presence of long-chain (P700) polyphosphate (polyP) was done in according to Choi et al. [17] by adding 2 μM of polyP to buffer (20 mM Tris HCl, pH 7.4, 150 mM NaCl and 0.1% BSA) followed by different concentrations of peptide (23.4 nM to 600 nM). α-Thrombin (5 nM) and 60 nM of FXI were then added and samples were incubated at 37°C for 35 minutes. Reactions were stopped with 50 nM of the thrombin inhibitor anophelin [18, 19] and polybrene to dissociate complexes with polyP. S2236 (Chromogenix Inc.) was added to a concentration of 250 μM and product formed was read as absorbance at 405 nm for 5–10 minutes in a microplate reader. Results were expressed as the percentage of the maximum activity (mAU/min) in the absence of peptide. Experiments were performed in duplicate.

α-thrombin [6] = target: T2, α-thrombin; experiment: Surface plasmon resonance, thrombin binding to immobilized peptide; settings: 150 mM NaCl
Experimental: Surface plasmon resonance (SPR) was used to measure interaction between immobilized peptides and thrombin using a Biacore T100 instrument. Approximately 500 resonance units of hyalomin-1 biotinylated at Lys1 or its N-terminal cleavage product (01–41) were bound to a neutravidin surface that had been immobilized on C5 chips using the amine coupling procedure. Kinetic measurements were carried out by injecting different concentrations of thrombin in 10 mM HEPES pH 7.4, 150 mM NaCl, 0.05%Tween-20. The chip surface was regenerated using injections of 10 mM glycine pH 2.5. Data were analyzed by global fitting of a 1:1 single state model using the Biacore T100 evaluation software. Binding of γ-thrombin with the same surface was also investigated under similar conditions.

factor Xa = settings: cited from earlier work
thrombin [7] = settings: cited from earlier work
[8] = 150 mM NaCl, 0.5 nM thrombin, 37°C, pH 7.4, three experiments, read-out: inhibition constant (Ki), competitive model

Q: Which “cleavage in thrombin-free control” value (thrombin [1]; 25 μM peptide without thrombin) does the source give for `CC[C@H](C)[C@H](NC(=O)[C@H](CCCNC(=N)N)NC(=O)[C@H](CCC(=O)O)NC(=O)[C@H](CO)NC(=O)[C@H](CC(=O)O)NC(=O)[C@H](CCCNC(=N)N)NC(=O)CNC(=O)[C@H](CO)NC(=O)CNC(=O)[C@@H]1CCCN1C(=O)[C@@H](NC(=O)[C@@H]1CCCN1C(=O)[C@H](CC(C)C)NC(=O)[C@H](CCCNC(=N)N)NC(=O)[C@@H]1CCCN1C(=O)[C@H](CCCCN)NC(=O)[C@H](C)NC(=O)[C@@H]1CCCN1C(=O)[C@@H](N)CCC(=O)O)C(C)C)C(=O)N1CCC[C@H]1C(=O)N[C@H](C(=O)N1CCC[C@H]1C(=O)N[C@H](C(=O)N[C@@H](CC(=O)O)C(=O)O)C(C)C)C(C)C` [36–59] (H-EPAKPRLPVPGSGRDSERIPVPVD-OH) here?
A: no cleavage

Q: And the “cleavage by thrombin (peptide remaining / digestion)” value (thrombin [1])?
A: complete digestion

Q: What about the Ki (α-thrombin [2]; [8]) of the same compound?
A: 100 ± 2 nM

Q: And the Ki (α-thrombin [2]; salt concentration 50 mM, read-out: Ki, competitive model)?
A: 180 ± 30 nM

Q: For `CC[C@H](C)[C@H](NC(=O)[C@H](CCCNC(=N)N)NC(=O)[C@H](CCC(=O)O)NC(=O)[C@H](CO)NC(=O)[C@H](CC(=O)O)NC(=O)[C@H](CCCNC(=N)N)NC(=O)CNC(=O)[C@H](CO)NC(=O)CNC(=O)[C@@H]1CCCN1C(=O)[C@@H](NC(=O)[C@@H]1CCCN1C(=O)[C@@H](N)CC(C)C)C(C)C)C(=O)N1CCC[C@H]1C(=O)N[C@H](C(=O)N1CCC[C@H]1C(=O)N[C@H](C(=O)N[C@@H](CC(=O)O)C(=O)O)C(C)C)C(C)C` [42–59] (H-LPVPGSGRDSERIPVPVD-OH), which Ki (α-thrombin [2]; ionic strength 150 mM, read-out: Ki, non-competitive model) is on record?
A: 1700 ± 100 nM

Q: And the Ki (α-thrombin [2]; salt concentration 50 mM, read-out: Ki, non-competitive model)?
A: 1800 ± 100 nM

Q: For “DESDYDTYPDDNNDDSGERNGGSEPAKPRLPV [hyalomin (13–44) sulfated]”, which cleaved bond (thrombin (α-thrombin) [3]) is on record?
A: Arg41-Leu42

Q: With “DESDYDTYPDDNNDDSGERNGGSEPAKPRLPV [hyalomin-1 (13–44)]” as the compound, how does the cleaved bond (thrombin (α-thrombin) [3]) read?
A: Arg41-Leu42, 2 hr

Q: For EPAKPRLPVPGSGRDSERIPVPVD, which cleaved bond (thrombin (α-thrombin) [3]) is on record?
A: Arg41-Leu42, two hours

Q: Which cleaved bond (thrombin (α-thrombin) [3]) does the source give for “KPNLQSRSDDGVDESDYDTYPDDNNDDSGERNGGSEPAKPRLPVPGSGRDSERIPVPVD” here?
A: Arg41-Leu42, two hours

Q: What does the source list for “KPNLQSRSDDGVDESDYDTYPDDNNDDSGERNGGSEPAKPRLPVPGSGRDSERIPVPVD [hyalomin-1]”?
A: cleavage by thrombin (peptide remaining / digestion) (thrombin [1]): No full-length peptide; loss of thrombin control activity in the presence of the peptide (thrombin (α-thrombin) [4]): 72%; Ki (α-thrombin [2]; 50 mM salt, 0.5 nM thrombin, 37°C, read-out: inhibition constant (Ki), competitive model): 0.4 ± 0.1 nM; Ki (α-thrombin [2]; [8]): 11.9 ± 1.8 nM; potency of the inhibitor over incubation time with thrombin (α-thrombin [2]; 800:1 peptide to enzyme (400 nM peptide, 0.5 nM thrombin), 37°C, six hour incubation, 50 μM S2238): diminished in a time-dependent manner; tail bleeding (BALB/c mice): significant bleeding; IC50 (thrombin [5]): ~25 nM; Kd (α-thrombin [6]; SPR, immobilized biotinylated peptide, read-out: calculated dissociation equilibrium constant (KD)): 19 nM; kon (α-thrombin [6]; peptide biotinylated at N-terminal lysine on neutravidin surface, pH 7.4, 1:1 model, read-out: association rate constant (ka)): 1e+06 M⁻¹ s⁻¹; koff (α-thrombin [6]; peptide biotinylated at N-terminal lysine on neutravidin surface, pH 7.4, 1:1 model, read-out: dissociation rate constant (kd)): 0.02 s⁻¹

Q: With “YPERDSAKDGNQEKERALLVKVQERYQGNQGDYDEYDQDETTPPPDPTAQTARPRLRQNQD” as the compound, how does the cleaved bond (factor Xa) read?
A: cleaved by factor Xa at Arg16; also recorded: cleaved by factor Xa at Arg25

Q: And the cleaved bond (thrombin [7])?
A: cleaved upstream of this site at Lys21

Q: For “YPERDSAKEGNQEQERALHVKVQKRTDGDADYDEYEEDGTTPTPDPTAPTAKPRLRGNKP”, which cleaved bond (factor Xa) is on record?
A: cleaved by factor Xa at Arg25; also recorded: cleaved by factor Xa at Arg54; also recorded: cleaved by factor Xa at Arg16

Q: And the cleaved bond (thrombin [7])?
A: Arg54-Leu55; also recorded: cleaved upstream of this site at Lys21
